This is an account of results in ChEMBL document CHEMBL1148455, “Synthesis and use of novel ether phospholipid enantiomers to probe the molecular basis of the antitumor Effects of alkyllysophospholipids: correlation of differential activation of c-Jun NH(2)-terminal protein kinase with antiproliferative effects in neuronal tumor cells” (2004).

Activity calls are given as the source filed them. No cut-off for these calls is given here.

In assay [1] the test system is MCF7. Briefly: Percentage viability of compound against MCF-7 cell line. It counts as functional, Homo sapiens.
In assay [2] the test system is MDA-MB-468. The assay is described as follows: Percentage viability of compound against MDA-MB-468 cell line; 92-94%. It counts as functional, Homo sapiens.
Assay [3] has as its system SK-N-MC. The assay is described as follows: Percentage viability of compound against SK-N-MC cell line; 92-94%. It counts as functional, Homo sapiens.
Assay [4] deals with T47D. Briefly: Percentage viability of compound against T47D cell line; 92-94%. Format: functional, Homo sapiens.
In assay [5] the test system is MCF7. Briefly: Percentage viability of compound against MCF-7 cell line; NE means No effect. The note with it: Homo sapiens. Format: functional, cell-based.
In assay [6] the test system is MDA-MB-468. Briefly: Percentage viability of compound against MDA-MB-468 cell line; NE means No effect. Format: functional, cell-based. The note with it: Homo sapiens.
The subject of assay [7] is SK-N-MC. Briefly: Percentage viability of compound against SK-N-MC cell line; NE means No effect. Format: functional, cell-based. The following applies: Homo sapiens.
Assay [8] deals with T47D. The assay is described as follows: Percentage viability of compound against T47D cell line; NE means No effect. The following applies: Homo sapiens. It counts as functional, cell-based.

Consider `CCCCCCCCCCCCCCCCOC[C@@H](/C=C/P(=O)([O-])OCC[N+](C)(C)C)OC`, for which the Viability in the assay on MCF7 [1] is 61%; with MDA-MB-468 [2], less than 94%; in the assay with SK-N-MC [3], less than 94%; with T47D [4], less than 94%.

For the molecule `CCCCCCCCCCCCCCCCOC[C@H](/C=C/P(=O)([O-])OCC[N+](C)(C)C)OC`, the Viability entry in the assay on MCF7 [5], in the assay on MDA-MB-468 [6], in the assay with SK-N-MC [7] and in the assay with T47D [8] was “inactive” each time.
